The values below come from patent publication US20200377496A1, “INDOLE AND BENZIMIDAZOLE DERIVATIVES AS DUAL 5-HT2A and 5-HT6 RECEPTOR ANTAGONISTS” (ADAMED PHARMA, S.A., priority 2018, published 2020).

In test [1] the target is human GPCR 5-HT6 (Homo sapiens, UniProt P50406). As to the kind of experiment: Cellular aequorin-based functional assay, 5-HT6. Format: cell-based. The following applies: for 5-HT6 AGO EC50 [nM]: agonist mode, CHO-K1 aequorin cells; for Kb: antagonist mode, reference agonist serotonin 40 nM (EC80), read-out: 5-HT6 ANT Kb. The method, then:
(§1) Preparation of Solutions of Test and Reference Compounds.
(§2) 1 mM stock solutions of the tested compounds were prepared in DMSO. Serial dilutions were prepared in 96-well microplate in assay buffers using automated pipetting system epMotion 5070 (Eppendorf). Two independent experiments in duplicates were performed and 6 to 10 concentrations were tested.
(§3) 5-HT2A and 5-HT6 Functional Activity Assays.
(§4) Cellular aequorin-based functional assays were performed with γ-irradiated recombinant CHO-K1 cells expressing mitochondrially-targeted Aequorin, human GPCR (5-HT2A or 5-HT6) and the promiscuous G protein α16 (PerkinElemer). Assays were performed according to the standard protocol provided by the manufacturer. After thawing, cells were transferred to assay buffer (DMEM/HAM's F12 with 0.1% protease-free BSA) and centrifuged. Cell pellet was resuspended in assay buffer and coelenterazine h was added at final concentrations of 5 μM. Cell suspension was incubated at 21° C., protected from light with constant agitation, for 4 hours and then diluted with assay buffer to a concentration of 250,000 cells/ml. After 1 hour incubation 50 yl cell suspension was dispensed using automatic injectors built in radiometric and luminescence plate counter MicroBeta2 LumiJET (PerkinElmer, USA) into white opaque 96-well microplate preloaded with tested compounds. Immediate light emission generated following calcium mobilization was recorded for 30-60 seconds. In antagonist mode, after 15-30 minutes incubation reference agonist was added to the above assay mix and light emission was recorded again. Final concentration of reference agonist was equal EC80: serotonin 40 nM for 5-HT6 receptor and α-methylserotonin 30 nM for 5-HT2A receptor. The assays were performed in the agonist mode (5-HT6 AGO and 5-HT2A AGO) as well as antagonist mode (5-HT6 ANT and 5-HT2A ANT).
(§5) IC50 and EC50 were determined by non-linear regression analysis using GraphPad Prism 6.0 software. The log IC50 was used to obtain the Kb by applying the Cheng-Prusoff approximation.

Test [2] deals with human GPCR 5-HT2A (Homo sapiens, UniProt P28223). The test can be described thus: Cellular aequorin-based functional assay, 5-HT2A. In kind it is cell-based. The following applies: for 5-HT2A AGO EC50 [nM]: agonist mode, CHO-K1 aequorin cells. The method, then: as §1, §2, §3, §4, §5
human GPCR 5-HT2A, sequence (P28223 whole entry): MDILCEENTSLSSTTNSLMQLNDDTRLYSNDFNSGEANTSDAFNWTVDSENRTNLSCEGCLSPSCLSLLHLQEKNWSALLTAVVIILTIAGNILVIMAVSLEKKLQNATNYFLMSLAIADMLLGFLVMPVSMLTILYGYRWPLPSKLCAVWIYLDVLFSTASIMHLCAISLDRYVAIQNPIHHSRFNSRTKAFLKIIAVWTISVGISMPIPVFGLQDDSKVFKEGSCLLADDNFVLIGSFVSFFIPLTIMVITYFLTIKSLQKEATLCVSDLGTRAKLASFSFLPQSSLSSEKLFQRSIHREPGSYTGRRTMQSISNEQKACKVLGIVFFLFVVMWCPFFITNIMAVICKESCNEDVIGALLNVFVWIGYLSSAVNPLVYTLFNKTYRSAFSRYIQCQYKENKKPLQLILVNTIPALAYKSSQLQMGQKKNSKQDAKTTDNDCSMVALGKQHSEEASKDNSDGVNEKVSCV
For test [3], the target named is human 5-HT2A receptor (Homo sapiens, UniProt P28223). The test can be described thus: 5-HT2A receptor binding assay ([3H]-ketanserin radioligand). The method, then:
as §1
(§6) 1 mM stock solutions of tested compounds were prepared in DMSO. Serial dilutions of compounds were prepared in 96-well microplate in assay buffers using automated pipetting system epMotion 5070 (Eppendorf). Each compound was tested in 10 concentrations from 1.0E-6 to 1.0E-11 M (final concentration).
5-HT2A Receptor Binding Assay.
Radioligand binding was performed using membranes from CHO K1 cells stably transfected with the human 5-HT2A receptor (PerkinElmer). All assays were carried out in duplicates. 50 μl working solution of the tested compounds, 50 μl [3H]-ketanserin (final concentration 1 nM) and 150 μl diluted membranes (7 μg protein per well) prepared in assay buffer (50 mM Tris, pH 7.4, 4 mM CaCl2, 0.1% ascorbic acid) were transferred to polypropylene 96-well microplate using 96-wells pipetting station Rainin Liquidator (MettlerToledo). Mianserin (10 μM) was used to define nonspecific binding. Microplate was covered with a sealing tape, mixed and incubated for 60 minutes at 27° C. The reaction was terminated by rapid filtration through GF/B filter mate presoaked with 0.5% polyethyleneimine for 30 minutes. Ten rapid washes with 200 μl 50 mM Tris buffer (4° C., pH 7.4) were performed using automated harvester system Harvester-96 MACH III FM (Tomtec). The filter mates were dried at 37° C. in forced air fan incubator and then solid scintilator MeltiLex was melted on filter mates at 90° C. for 5 minutes. Radioactivity was counted in MicroBeta2 scintillation counter (PerkinElmer). Data were fitted to a one-site curve-fitting equation with Prism 6 (GraphPad Software) and Ki values were estimated from the Cheng-Prusoff equation.

In test [4] the target is T1, 5-HT6 receptors (Homo sapiens, UniProt P50406). The test can be described thus: 5-HT6 receptor binding assay ([3H]-LSD radioligand). The following applies: membranes from CHO-K1 cells with human 5-HT6 receptor, [3H]-LSD 1 nM. The method, then: as §1, §6
T1 sequence (P50406 whole entry): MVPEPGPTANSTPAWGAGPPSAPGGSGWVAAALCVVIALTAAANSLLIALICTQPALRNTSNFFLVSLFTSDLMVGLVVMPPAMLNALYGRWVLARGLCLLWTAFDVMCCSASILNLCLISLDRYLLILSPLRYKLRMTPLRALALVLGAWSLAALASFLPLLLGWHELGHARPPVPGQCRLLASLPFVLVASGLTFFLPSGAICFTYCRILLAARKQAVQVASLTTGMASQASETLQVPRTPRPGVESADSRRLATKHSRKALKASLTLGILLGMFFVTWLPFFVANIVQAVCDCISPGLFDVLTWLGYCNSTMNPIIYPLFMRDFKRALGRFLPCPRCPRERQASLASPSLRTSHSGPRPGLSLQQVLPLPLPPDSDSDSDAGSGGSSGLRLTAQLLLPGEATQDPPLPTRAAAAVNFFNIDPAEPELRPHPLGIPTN
5-HT6 Receptor Binding Assay.
Radioligand binding was performed using membranes from CHO-K1 cells stably transfected with the human 5-HT6 receptor (PerkinElmer). All assays were carried out in duplicates. 50 μl working solution of the tested compounds, 50 μl [3H]-LSD (final concentration 1 nM) and 150 μl diluted membranes (8 μg protein per well) prepared in assay buffer (50 mM Tris, pH 7.4, 10 mM MgCl2, 0.1 mM EDTA) were transferred to polypropylene 96 well microplate using 96-wells pipetting station Rainin Liquidator (MettlerToledo). Methiothepin (10 μM) was used to define nonspecific binding. Microplate was covered with a sealing tape, mixed and incubated for 60 minutes at 37° C. The reaction was terminated by rapid filtration through GF/A filter mate presoaked with 0.5% polyethyleneimine for 30 minutes. Ten rapid washes with 200 μl 50 mM Tris buffer (4° C., pH 7.4) were performed using automated harvester system Harvester-96 MACH III FM (Tomtec). The filter mates were dried at 37° C. in forced air fan incubator and then solid scintilator MeltiLex was melted on filter mates at 90° C. for 5 minutes. Radioactivity was counted in MicroBeta2 scintillation counter (PerkinElmer). Data were fitted to a one-site curve-fitting equation with Prism 6 (GraphPad Software) and Ki values were estimated from the Cheng-Prusoff equation.

For test [5], the target named is T1, 5-HT6 receptors. The following applies: cited from earlier work.
Setting [6] is: membranes from CHO K1 cells with human 5-HT2A receptor, [3H]-ketanserin 1 nM, read-out: 5-HT2A Ki.
Where [7] appears, read: antagonist mode, reference agonist α-methylserotonin 30 nM (EC80), read-out: 5-HT2A ANT Kb.

pKi: −log10 of the molar value. Read-outs that look alike come from different tables or passages of the source.

human GPCR 5-HT6, sequence (P50406 whole entry): as above
human 5-HT2A receptor, sequence (P28223 whole entry): as the sequence (P28223 whole entry) above

For orientation: pKi means the negative decadic logarithm of the Ki, by convention in mol/L. Regarding `FC(F)(F)c1cc2c(N3CCNCC3)cccc2n1Cc1ccccc1` [Compound 12, 1-benzyl-4-(piperazin-1-yl)-2-(trifluoromethyl)-1H-indole], in test [1], the “5-HT6 AGO EC50 [nM]” value was “N.C” and the Kb was 0.49 nM. In test [2], the Kb was 31 nM and the “5-HT2A AGO EC50 [nM]” value is on record as “N.C”. For the same molecule, in test [3], the pKi was 8.68. In test [4], this molecule had a pKi of 9.54.

`CN1CCN(c2cccc3c2cc(C(F)(F)F)n3Cc2ccc(Cl)c(Cl)c2)CC1` [Compound 13, 1-(3,4-dichlorobenzyl)-4-(4-methylpiperazin-1-yl)-2-(trifluoromethyl)-1H-indole]: in test [1], the “5-HT6 AGO EC50 [nM]” value was “N.C” and the Kb came to 9.1 nM. Moreover, in test [2], the “5-HT2A AGO EC50 [nM]” value was “N.C”. For the same molecule, the pKi in test [3] (setting [6]) was 8.59. This molecule also gave a pKi in test [4] of 9.01.

For `CN1CCN(c2cccc3c2cc(C(F)(F)F)n3Cc2ccc(Cl)c(F)c2)CC1` [Compound 14, 1-(4-chloro-3-fluorobenzyl)-4-(4-methylpiperazin-1-yl)-2-(trifluoromethyl)-1H-indole], in test [1], the “5-HT6 AGO EC50 [nM]” value is listed as “N.C”. For the same molecule, the figures for the Kb in test [1] and in test [2] (setting [7]) were 5.5 nM and 59 nM, respectively. Further, the “5-HT2A AGO EC50 [nM]” value in test [2] is listed as “N.C”. Further, the negative-log Ki (pKi) is 9.41 in test [3] (setting [6]) and 9.19 in test [4].

With `Fc1cc(Cn2c(C(F)(F)F)cc3c(N4CCNCC4)cccc32)ccc1Cl` [Compound 16, 1-(4-chloro-3-fluorobenzyl)-4-(piperazin-1-yl)-2-(trifluoromethyl)-1H-indole], in test [1], the “5-HT6 AGO EC50 [nM]” value is given as “N.C”. The Kb was determined as 4.4 nM in test [1] and 55 nM in test [2] (setting [7]). Also, the “5-HT2A AGO EC50 [nM]” value in test [2] is on record as “N.C”. Also, the negative-log Ki (pKi) in test [3] (setting [6]) was 9.09; in test [4] it was 9.21.

`Fc1cccc(Cn2c(C(F)(F)F)cc3c(N4CCNCC4)cccc32)c1` [Compound 19, 1-(3-fluorobenzyl)-4-(piperazin-1-yl)-2-(trifluoromethyl)-1H-indole]: in test [1], the “5-HT6 AGO EC50 [nM]” value is “N.C” and the Kb was found to be 0.14 nM. In test [2], the Kb stood at 21 nM and the “5-HT2A AGO EC50 [nM]” value is on record as “N.C”. In test [3], the pKi was 8.89. The molecule further gave a pKi in test [4] of 9.46.

Turning to `CN1CCN(c2cccc3c2cc(C(F)(F)F)n3Cc2cccc(F)c2)CC1` [Compound 24, 1-[(3-fluorophenyl)methyl]-4-(4-methylpiperazin-1-yl)-2-(trifluoromethyl)-1H-indole], the “5-HT6 AGO EC50 [nM]” value in test [1] is “N.C”. For the same molecule, the Kb came out at 1.1 nM in test [1] and 28 nM in test [2] (setting [7]). In test [2], the “5-HT2A AGO EC50 [nM]” value is reported as “N.C”. For the same molecule, the pKi is 9.14 in test [3] (setting [6]) and 10.04 in test [4].

Consider `Fc1ccc(Cn2c(C(F)(F)F)cc3c(N4CCNCC4)cccc32)cc1F` [Compound 25, 1-(3,4-difluorobenzyl)-4-(piperazin-1-yl)-2-(trifluoromethyl)-1H-indole], for which, in test [1], the “5-HT6 AGO EC50 [nM]” value was “N.C”. The figures for the Kb in test [1] and in test [2] (setting [7]) were 0.65 nM and 20 nM, respectively. Also, the “5-HT2A AGO EC50 [nM]” value in test [2] is recorded as “N.C”. For the same molecule, the pKi in test [3] (setting [6]) is 9.15; in test [4] it was 9.43.

As to `Cc1ccc(Cn2c(C(F)(F)F)cc3c(N4CCNCC4)cccc32)o1` [Compound 28, 1-[(5-methylfuran-2-yl)methyl]-4-(piperazin-1-yl)-2-(trifluoromethyl)-1H-indole], in test [1], the “5-HT6 AGO EC50 [nM]” value is listed as “N.C”. The Kb in test [1] came out at 0.25 nM; in test [2], 16 nM. The “5-HT2A AGO EC50 [nM]” value in test [2] is on record as “N.C”. Moreover, the pKi is 9.32 in test [3] and 8.40 in test [4].

As for `Cc1ccc(Cn2c(C(F)(F)F)cc3c(N4CCNCC4)cccc32)s1` [Compound 29, 1-[(5-methylthiophen-2-yl)methyl]-4-(piperazin-1-yl)-2-(trifluoromethyl)-1H-indole], in test [1], the “5-HT6 AGO EC50 [nM]” value was “N.C” and the Kb amounted to 0.051 nM. Also, in test [2], the Kb was determined as 9.8 nM and the “5-HT2A AGO EC50 [nM]” value is “N.C”. Moreover, the negative logarithm of the Ki (pKi) in test [3] is 9.43. In addition, the negative logarithm of the Ki (pKi) in test [4] is 9.96.

Consider `FC(F)(F)c1cc2c(N3CCNCC3)cccc2n1Cc1cccs1` [Compound 30, 4-(piperazin-1-yl)-1-(thiophen-2-ylmethyl)-2-(trifluoromethyl)-1H-indole], for which, in test [1], the “5-HT6 AGO EC50 [nM]” value was “N.C” and the Kb turned out to be 0.65 nM. In addition, in test [2], the Kb came to 5.5 nM and the “5-HT2A AGO EC50 [nM]” value is “N.C”. Besides, in test [3], the pKi was 9.48. In test [4], the pKi was 10.15.

Regarding `FC(F)(F)c1cc2c(N3CCNCC3)cccc2n1Cc1ccsc1` [Compound 31, 4-(piperazin-1-yl)-1-(thiophen-3-ylmethyl)-2-(trifluoromethyl)-1H-indole], in test [1], the “5-HT6 AGO EC50 [nM]” value is given as “N.C”. Besides, the Kb in test [1] worked out at 0.2 nM; in test [2], 16 nM. Further, the “5-HT2A AGO EC50 [nM]” value in test [2] was “N.C”. In addition, the pKi is 8.82 in test [3] and 9.96 in test [4].

Regarding `CN1CCN(c2cccc3c2cc(C(F)(F)F)n3Cc2ccsc2)CC1` [Compound 32, 4-(4-methylpiperazin-1-yl)-1-(thiophen-3-ylmethyl)-2-(trifluoromethyl)-1H-indole], in test [1], the “5-HT6 AGO EC50 [nM]” value was “N.C”. Also, the values for the Kb in test [1] and in test [2] (setting [7]) were 0.37 nM and 11 nM, respectively. The “5-HT2A AGO EC50 [nM]” value in test [2] is “N.C”. The negative logarithm of the Ki (pKi) in test [3] (setting [6]) was 8.64; in test [4] it was 10.21.

With `CN1CCN(c2cccc3c2cc(C(F)(F)F)n3Cc2cccs2)CC1` [Compound 33, 4-(4-methylpiperazin-1-yl)-1-(thiophen-2-ylmethyl)-2-(trifluoromethyl)-1H-indole], the “5-HT6 AGO EC50 [nM]” value in test [1] is listed as “N.C”. The Kb in test [1] amounted to 0.28 nM; in test [2] (setting [7]), 9.7 nM. In addition, the “5-HT2A AGO EC50 [nM]” value in test [2] is reported as “N.C”. In addition, the pKi in test [3] (setting [6]) is 9.77; in test [4] it was 10.16.

Take `CC(C)COc1ccc(CNC(=O)N(Cc2ccc(F)cc2)C2CCN(C)CC2)cc1` [pimavanserin]: the “affinity for the 5-HT6 receptors” value in test [5] is reported as “no affinity”.
